How the values were obtained:
HCC1569 xenograft model = test: HCC1569 xenograft, Study HCC1569-2; assay type: in vivo, NSG mice; conditions: 3 mg/kg, three weekly doses, i.p.
Protocol: Tumor volume was measured once or twice weekly until study day 71.
(§1) Female NSG mice were implanted with 1×10^6HCC1569 tumor cells in 25% Matrigel H C (Corning #354248) subcutaneously. Once tumor volumes reached 100 mm^3, mice were randomized into treatment groups of 5 mice each and dosed with 3 mg/kg of ADC every seven days for three total doses (q7dx3). Each mouse was treated with 10 mg/kg hIVIG (Grifolds) twenty-four hours prior to receiving each ADC dose. Tumor volumes were measured 1-3 times per week, and animals were euthanized when tumor volume reached 700-1000 mm^3. Stock concentrations of ADC were diluted to a desired concentration (with 0.01% Tween20 in PBS) and injected i.p. into each treatment group.

hFcγRIIb = molecular target: T1, hFcγRIIb (Homo sapiens, UniProt P31994); test: BLI binding to human Fc receptors; conditions: low data quality
T1 construct: made in house
T1 sequence (P31994 43-310): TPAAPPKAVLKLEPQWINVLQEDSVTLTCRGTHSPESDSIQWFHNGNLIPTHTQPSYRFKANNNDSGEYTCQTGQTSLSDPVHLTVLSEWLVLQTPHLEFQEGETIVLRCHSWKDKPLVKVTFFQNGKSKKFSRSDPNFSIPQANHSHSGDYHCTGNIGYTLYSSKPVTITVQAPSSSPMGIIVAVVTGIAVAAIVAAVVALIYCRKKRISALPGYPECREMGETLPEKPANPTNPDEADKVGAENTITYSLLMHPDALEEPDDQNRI

HR+ BC PDX models = test: HR+ breast cancer patient-derived xenograft models; assay type: in vivo, mice; conditions: for % TGI: 3 mg/kg q7dx3, vs untreated
Protocol: Specifically, Stock mice were bilaterally implanted with fragments from one of the Champions TumorGraft® models representing human HR^+ BC or ovarian cancer. After the tumors reached 1000-1500 mm^3, they were harvested, and the tumor fragments were implanted subcutaneously (s.c.) in the left flank of the female study mice. Each animal was implanted with a specific passage lot and documented. Tumor growth was monitored twice a week using digital calipers, and the tumor volume (TV) was calculated using the formula (0.52×[length×width^2]). When the TV reached approximately 150-300 mm^3, animals were matched by tumor size and assigned into control (untreated) or treatment groups (n=3 animals/group). Each animal in the treatment groups was dosed with 3 mg/kg of ADC every seven days for three total doses (q7dx3). […]
Inhibition of tumor growth was determined by calculating the percent TGI on the day at which animals in the control group were terminated (100%×[1−(final MTV−initial MTV of a treated group)/(final MTV−initial MTV of the control group)]). Treatment started on Day 0.

MX-1 xenograft model = test: MX-1 xenograft, Study MX1-2; assay type: in vivo, SCID mice; conditions: 3 mg/kg, three weekly doses, i.p.
Protocol: Tumor volume was measured twice weekly until study day 84.
as §1, with “SCID” for “NSG”, “5×10^5 MX1” for “1×10^6HCC1569”, “(q7dx3).” for “(q7dx3). Each mouse was treated with 10 mg/kg hIVIG (Grifolds) twenty-four hours prior to receiving each ADC dose.”, “twice” for “1-3 times”

[1] = system: WIL2S and RAJI cells transduced to express human B7-H4; test: CDC, Sytox Green, 10% human serum; assay type: cell-based
Protocol: Antibodies have the ability to recruit complement proteins triggering complement-dependent cytotoxicity (CDC).
Using complement media (RPMI containing 10% human serum (Complement Technology, Inc. #NHS)), test antibodies and controls were titrated with a 3-fold dilution ranging from 50-0.02 μg/mL and 100 μL/well of the titrations were plated over the target cells. To measure total cell death, 2% Triton X (EMD Millipore Corp. #648463-50ML) was used as a positive control. Test plate was incubated for 2 hours at 37° C. in a humidity-controlled incubator and then Sytox Green fluorescence was read on an Envision plate reader.

[2] = Non-human primate (NHP) and rat tox study; assay type: in vivo, rat and cynomolgus monkey
From the text: The nonclinical safety profile of SGN-B7H4V supports the proposed initial clinical development plan. […] The hematologic toxicity is consistent with the mechanism of action (MOA) for MMAE.

[3] = system: MDA-MB-468 xenograft tumors; test: MDA-MB-468 xenograft, single dose, tumor volume; assay type: in vivo, NSG mice; conditions: single 3 mg/kg dose, i.p.
Protocol: Tumors were harvested 7 days after treatment, cut in half, and processed for RNA-seq or IHC. […]
Specifically, female NSG mice were implanted with 1×10^6 MDA-MB-468 cells in 25% Matrigel H C subcutaneously. Once tumor volumes reached ˜250-300 mm^3, mice were randomized into treatment groups of 6 mice each and treated with a single 3 mg/kg dose of ADC or mAb, or vehicle control (20 mM Histidine buffer, pH 6.0) injected intraperitoneally (i.p.). Stock concentrations of ADC were diluted to desired concentration with 20 mM Histidine buffer, pH 6.0 or and stock concentration of mAb were diluted to desired concentration with 0.01% Tween20 in PBS. Twenty-four hours prior to dosing, each animal was treated with 10 mg/kg hIVIG. One week following treatment, tumors were harvested, cut in half, and processed for RNAseq (frozen at −80° C.) or formalin-fixed and paraffin-embedded for immunohistochemical (IHC) analysis.

## SGN-B7H4V: ADC of fully human IgG1 anti-B7-H4 mAb conjugated to monomethyl auristatin E (MMAE) via a protease-cleavable valine-citrulline linker (vedotin)
HCC1569 xenograft model
  anti-tumor activity (tumor volume): robust tumor growth delay
hFcγRIIb
  affinity: weakest affinity
HR+ BC PDX models; HR+ BC, 3 mg/kg, 3 weekly doses
  PDX models with antitumor activity: ⅙
HR+ BC PDX models; HR+ BC_1, Day 38
  % TGI: 7%
HR+ BC PDX models; HR+ BC_2, Day 34
  % TGI: 79%
HR+ BC PDX models; HR+ BC_3, Day 16
  % TGI: 28%
HR+ BC PDX models; HR+ BC_4, Day 59
  % TGI: 12%
HR+ BC PDX models; HR+ BC_5, Day 59
  % TGI: 11%
HR+ BC PDX models; HR+ BC_6, Day 62
  % TGI: 16%
MX-1 xenograft model
  anti-tumor activity (tumor volume): regression of tumor volumes in all mice
  mice with sustained regression: 4 of the 5
[1]
  lysis (CDC): did not induce lysis
[2]; pivotal GLP and non-GLP studies
  primary target organs of toxicity: hematological system, testes, and ovaries
[2]; rat and cynomolgus monkey
  tolerability: tolerated in the rat and cynomolgus monkey
[3]
  tumor volume: reduction in tumor volume

— patent US20230117205A1, “B7-H4 ANTIBODY-DRUG CONJUGATES FOR THE TREATMENT OF CANCER” (SEAGEN INC., priority 2021, published 2023)
